Measurements taken from patent publication US12377110B2, “Fospropofol methods and compositions” (Epalex Corporation, priority 2019, dated 2025).
Where “and” joins values, the source holds several entries; their conditions need not be identical. Equal entries are not always repeated. Where two headings read alike, the source gives them in different places.

What was measured:
[1] = Study No. 15-4 toxicokinetics of fospropofol and propofol in plasma; assay type: in vivo, Beagle dogs; conditions: beagle, dog, plasma, po, oral gavage fospropofol disodium; for AUC(0-t): read-out: Fospropofol AUC0-6 hr; for Tmax: read-out: Fospropofol Tmax
Procedure: The purpose of Study No. 15-4 (GLP) was to determine the potential toxicity of fospropofol in Beagle dogs when administered once daily by oral gavage for 14 days. […] Because the treatment-related clinical observations (consistent with the expected transient sedative actions of fospropofol) and effects on hematology and clinical chemistry parameters were considered nonadverse, the NOAEL was determined to be 160 mg/kg/day (3200 mg/m^2/day).

[2] = Study A17: PK of fospropofol and propofol after single oral dose of fospropofol disodium 800 mg in subjects with migraine; conditions: for AUC / Cmax / Tmax: female, human, po, 800 mg; for Cmax: Fospropofol Cmax; for Tmax: Fospropofol Tmax
Procedure: The study is planned to complete approximately 85 subjects. • Enrolled subjects will be asked to come to the study site for treatment when they experience a qualifying migraine headache. Dosing must occur within 4 hours after onset of the migraine symptoms. If treatment at the study site is not feasible or practicable within 4 hours after onset of migraine symptoms, subjects should use their usual medication for that headache and attempt to visit the clinic for treatment as soon as possible (within 4 hours) after onset of their next migraine headache. Dosing must occur within 60 days after enrollment (see Post-enrollment Period below). • At clinic check-in for treatment, study personnel will verify eligibility for closing regarding the criteria for a qualifying headache and adherence to post-enrollment study restrictions (see Eligibility for Dosing below). • Treatment will consist of a single oral dose of fospropofol disodium. […] Because the prevalence of migraine headaches is higher in women than in men, efforts will be made to enroll at least 50% women. • Subjects must meet the general inclusion and exclusion criteria listed below (Inclusion Criteria and Exclusion Criteria) at screening to be enrolled in the study. To be eligible for fospropofol disodium treatment after onset of a migraine headache, enrolled subjects must meet criteria specific to the presenting headache at clinic check-in (see Qualifying Headache below) and adhere to study restrictions specific to the period between enrollment and clinic check-in (see Post-enrollment Restrictions below). • Inclusion Criteria Subjects must meet all of the following criteria at screening to be enrolled in the study: • 1. Written informed consent approved by the Institutional Review Board (IRB) given before any study-related procedures are performed • 2. […] Complete abstinence alone can be used as a method of contraception. • 6. […] Able to comprehend the nature of the study, capable of giving written informed consent, and able to communicate effectively with clinic staff (as assessed by the investigator) • 8. Available to volunteer for the entire study duration and willing to adhere to all protocol requirements, including the post-enrollment restrictions (see Post-enrollment Restrictions below) • 9. Agrees not to post any information related to the study on any website or social media site (e.g., Facebook, Twitter, LinkedIn, Google+, etc.) until the entire trial has been completed • 10. Willing to forgo rescue medicine for at least 2 hours after initiation of treatment with study drug (see In-Clinic Rescue Medicine) • Exclusion Criteria Subjects to whom any of the following criteria apply at screening will be excluded: • 1. History of hemiplegic migraine (at any time in the past). • 2. History of headaches of any type occurring on ≥15 days/month during any of the 3 months prior to screening. • 3.

[3] = female, 100 mg/kg, Female, 100 mg/kg, Day 14
[4] = female, 160 mg/kg, Female, 160 mg/kg, Day 1
[5] = female, 160 mg/kg, Female, 160 mg/kg, Day 14
[6] = male, 50 mg/kg, Male, 50 mg/kg, Day 1
[7] = male, 50 mg/kg, Male, 50 mg/kg, Day 14
[8] = male, 100 mg/kg, Male, 100 mg/kg, Day 1
[9] = male, 100 mg/kg, Male, 100 mg/kg, Day 14
[10] = male, 160 mg/kg, Male, 160 mg/kg, Day 1
[11] = male, 160 mg/kg, Male, 160 mg/kg, Day 14
[12] = A17 vs. A16 800 mg Cohort, excluding subject 308
[13] = Study A17 vs. A16 800 mg Cohort, excluding subject 308
[14] = plasma, Mean, Mean without Subject 6008 (below limit of quantitation at all time points), Fospropofol Disodium 800 mg oral
[15] = plasma, Mean, N = 12 migraine subjects, Fospropofol Disodium 800 mg oral
[16] = individual migraine subjects, Fospropofol Disodium 800 mg oral
[17] = plasma, individual migraine subjects (N = 12), Fospropofol Disodium 800 mg oral

CC(C)c1cccc(C(C)C)c1OCOP(=O)(O)O [fospropofol, (2,6-diisopropylphenoxy)methyl dihydrogen phosphate]
Cmax [1, 3]: 9310 ng/mL
AUC(0-t) [1, 3]: 15100 ng·h/mL
Tmax [1, 3]: 30 to 60 min
Cmax [1, 4]: 7380 ng/mL
AUC(0-t) [1, 4]: 11200 ng·h/mL
Tmax [1, 4]: 15 to 60 min
Cmax [1, 5]: 12700 ng/mL
AUC(0-t) [1, 5]: 16000 ng·h/mL
Tmax [1, 5]: 15 to 60 min
Cmax [1, 6]: 5130 ng/mL
AUC(0-t) [1, 6]: 7710 ng·h/mL
Tmax [1, 6]: 30 to 60 min
Cmax [1, 7]: 3300 ng/mL
AUC(0-t) [1, 7]: 4860 ng·h/mL
Tmax [1, 7]: 30 to 60 min
Cmax [1, 8]: 9480 ng/mL
AUC(0-t) [1, 8]: 11700 ng·h/mL
Tmax [1, 8]: 30 to 60 min
Cmax [1, 9]: 6340 ng/mL
AUC(0-t) [1, 9]: 6340 ng·h/mL
Tmax [1, 9]: 15 to 60 min
Cmax [1, 10]: 10000 ng/mL
AUC(0-t) [1, 10]: 13500 ng·h/mL
Tmax [1, 10]: 15 to 60 min
Cmax [1, 11]: 6970 ng/mL
AUC(0-t) [1, 11]: 9000 ng·h/mL
Tmax [1, 11]: 4.98 to 60 min
Ratio of mean fospropofol Auc1, migraine subjects (all female) to female healthy volunteers [2, 12]: 110%
Ratio of mean fospropofol Auc2, migraine subjects (all female) to female healthy volunteers [2, 12]: 116%
Ratio of mean fospropofol Auc4, migraine subjects (all female) to female healthy volunteers [2, 12]: 120%
Ratio of mean fospropofol Cmax, migraine subjects (all female) to female healthy volunteers [2, 12]: 94%
Ratio of mean fospropofol Tmax, migraine subjects (all female) to female healthy volunteers [2, 12]: 89%
Ratio of mean fospropofol Auc1, migraine subjects to healthy volunteers [2, 13]: 121%
Ratio of mean fospropofol Auc2, migraine subjects to healthy volunteers [2, 13]: 130%
Ratio of mean fospropofol Auc4, migraine subjects to healthy volunteers [2, 13]: 135%
Ratio of mean fospropofol Cmax, migraine subjects to healthy volunteers [2, 13]: 105%
Ratio of mean fospropofol Tmax, migraine subjects to healthy volunteers [2, 13]: 98%
AUC ([2]; plasma, Fospropofol AUC1, Mean, Mean without Subject 6008 (below limit of quantitation at all time points), Fospropofol Disodium 800 mg oral): 3360 ng·h/mL
AUC ([2]; plasma, Fospropofol AUC1, Mean, Mean, N = 12 migraine subjects, Fospropofol Disodium 800 mg oral): 3080 ng·h/mL
AUC ([2]; plasma, Fospropofol AUC2, Mean, Mean without Subject 6008 (below limit of quantitation at all time points), Fospropofol Disodium 800 mg oral): 4310 ng·h/mL
AUC ([2]; plasma, Fospropofol AUC2, Mean, Mean, N = 12 migraine subjects, Fospropofol Disodium 800 mg oral): 3950 ng·h/mL
AUC ([2]; plasma, Fospropofol AUC4, Mean, Mean without Subject 6008 (below limit of quantitation at all time points), Fospropofol Disodium 800 mg oral): 4650 ng·h/mL
AUC ([2]; plasma, Fospropofol AUC4, Mean, Mean, N = 12 migraine subjects, Fospropofol Disodium 800 mg oral): 4260 ng·h/mL
Cmax [2, 14]: 6320 ng/mL
Cmax [2, 15]: 5790 ng/mL
Tmax [2, 14]: 19.8 min
Tmax [2, 15]: 19.8 min
Fospropofol AUC4 [2, 16]: 3837.04 ng·h/mL and 1469.88 ng·h/mL and 4303.32 ng·h/mL and 4814.33 ng·h/mL and 6942.73 ng·h/mL and 1702.48 ng·h/mL and 8572.36 ng·h/mL and 1248.45 ng·h/mL and 3152.5 ng·h/mL and 7130.22 ng·h/mL and 7986.57 ng·h/mL
Fospropofol Cmax [2, 16]: 5163.62 ng/mL and 3285.03 ng/mL and 5036.79 ng/mL and 7527.26 ng/mL and 10597.13 ng/mL and 2219.93 ng/mL and 8307.86 ng/mL and 1419.1 ng/mL and 4507.39 ng/mL and 11463.93 ng/mL and 10001.18 ng/mL
Fospropofol Tmax [2, 16]: 10 min and 40 min
Fospropofol AUC 1 hr [2, 17]: 723.61 ng·h/mL and 2418.57 ng·h/mL and 5268.76 ng·h/mL and 6456.6 ng·h/mL and 2684.78 ng·h/mL and 1315.43 ng·h/mL and 3262.09 ng·h/mL and 3522.27 ng·h/mL and 5673.87 ng·h/mL and 1193.95 ng·h/mL and 4461.52 ng·h/mL
Fospropofol AUC 2 hr [2, 17]: 1007.69 ng·h/mL and 3045.22 ng·h/mL and 6730.95 ng·h/mL and 7756.33 ng·h/mL and 3666.13 ng·h/mL and 1421.1 ng·h/mL and 4174.88 ng·h/mL and 4386.97 ng·h/mL and 6702.97 ng·h/mL and 1610.51 ng·h/mL and 6945.81 ng·h/mL
